From ChEMBL document CHEMBL1201862, “PubChem BioAssay data set” (2004)
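96-well plates; 48 h exposure; 5 concentrations. Endpoints by linear interpolation between flanking doses. Not reached: highest tested concentration assigned. The concentration for 50% growth inhibition is given as GI50.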 Calls of active or inactive are those of the source. Cut-off read from the data, not from the text of the source: active = GI50 up to about 1.1 µM and inactive = higher.

Legend:
Assay in all cases: NCI-60 cell line screen, 48 h
SF-539 = system: SF-539
SK-MEL-28 = system: SK-MEL-28
COLO 205 = system: COLO 205
HT-29 = system: HT-29
SK-OV-3 = system: SK-OV-3
HCT-116 = system: HCT-116
HL-60 = system: HL-60
786-0 = system: 786-0
KM-20L2 = system: KM-20L2
NCI-H460 = system: NCI-H460
HOP-62 = system: HOP-62
SF-268 = system: SF-268
K562 = system: K562
Malme-3M = system: Malme-3M
M14 = system: M14
RPMI-8226 = system: RPMI-8226

Measured: GI50

COC(=O)C(C(=O)C(=O)Nc1ccc([N+](=O)[O-])cc1)c1nc2ccc([N+](=O)[O-])cc2nc1O (stereo not given)
inactive: SF-539 > 100 µM | SK-MEL-28 > 100 µM | COLO 205 > 100 µM | HT-29 > 100 µM | SK-OV-3 > 100 µM | HCT-116 > 100 µM | HL-60 41.9 µM | 786-0 > 100 µM | KM-20L2 > 100 µM | NCI-H460 > 100 µM | HOP-62 > 100 µM | SF-268 > 100 µM | K562 39.2 µM | Malme-3M > 100 µM | M14 76.6 µM

Cc1ccc(N2C(=O)/C(=C3\Sc4c(nc(C)[nH]c4=O)N3c3ccccc3)SC2=S)cc1
inactive: SF-539 10 µM | SK-MEL-28 > 100 µM | COLO 205 > 100 µM | HT-29 68.9 µM | SK-OV-3 15.8 µM | HCT-116 60.3 µM | RPMI-8226 > 100 µM | HL-60 > 100 µM | 786-0 10.4 µM | KM-20L2 > 100 µM | NCI-H460 22.2 µM | HOP-62 10.4 µM | SF-268 75.2 µM | K562 32 µM | Malme-3M 46.8 µM | M14 19.7 µM

COC(=O)C1=CC2CC1C(S(=O)(=O)c1ccccc1)C2S(=O)(=O)c1ccccc1 (stereo not given)
inactive: SK-MEL-28 14.1 µM | COLO 205 8.45 µM | HT-29 13.8 µM | SK-OV-3 44.3 µM | HCT-116 14.8 µM | RPMI-8226 5.4 µM | HL-60 2.62 µM | 786-0 10.3 µM | KM-20L2 16.4 µM | NCI-H460 21.6 µM | HOP-62 54.3 µM | SF-268 22.9 µM | K562 5.14 µM | Malme-3M 10.7 µM | M14 11.3 µM

CCOC(=O)/C(=C/c1cccc(OC)c1)N(CC)CC
inactive: SF-539 > 100 µM | SK-MEL-28 > 100 µM | COLO 205 > 100 µM | HT-29 > 100 µM | SK-OV-3 > 100 µM | HCT-116 > 100 µM | RPMI-8226 > 100 µM | HL-60 > 100 µM | 786-0 > 100 µM | KM-20L2 > 100 µM | NCI-H460 > 10 µM | HOP-62 > 100 µM | SF-268 > 100 µM | K562 > 100 µM | M14 > 100 µM

C=CCCCCCC(O)C(O)C/C=C\C/C=C\CC (stereo not given)
inactive: SF-539 > 18.8 µM | SK-MEL-28 > 18.8 µM | COLO 205 > 18.8 µM | HT-29 > 18.8 µM | SK-OV-3 > 18.8 µM | HCT-116 > 18.8 µM | RPMI-8226 > 18.8 µM | HL-60 > 7.71 µM | 786-0 > 18.8 µM | KM-20L2 > 18.8 µM | NCI-H460 13.5 µM | HOP-62 > 16.8 µM | SF-268 > 18.8 µM | K562 > 12 µM | Malme-3M > 18.8 µM | M14 > 18.8 µM

NC(=O)CCC(Nc1c2ccccc2nc2ccccc12)C(=O)O (stereo not given)
inactive: SF-539 > 100 µM | SK-MEL-28 > 100 µM | COLO 205 > 100 µM | HT-29 93.1 µM | HCT-116 91 µM | RPMI-8226 17.2 µM | HL-60 15.3 µM | 786-0 > 100 µM | KM-20L2 > 100 µM | NCI-H460 86.9 µM | SF-268 > 100 µM | K562 45.7 µM | Malme-3M > 100 µM | M14 > 100 µM

COc1cccc2c(SCC(=O)Nc3ccccc3-c3ccccc3NC(=O)CSc3c4ccccc4nc4c(OC)cccc34)c3ccccc3nc12
inactive: SF-539 60.5 µM | SK-MEL-28 > 100 µM | COLO 205 > 100 µM | HT-29 > 100 µM | HCT-116 > 100 µM | HL-60 9.93 µM | 786-0 > 100 µM | KM-20L2 > 100 µM | NCI-H460 > 100 µM | HOP-62 > 100 µM | SF-268 45.4 µM | K562 74.3 µM | M14 60.1 µM

CCOC(=O)c1cnc2[nH]c(=O)c3ccccc3n2c1=O
inactive: SF-539 > 100 µM | SK-MEL-28 > 100 µM | COLO 205 > 100 µM | HT-29 > 100 µM | SK-OV-3 > 100 µM | HCT-116 > 100 µM | RPMI-8226 > 100 µM | HL-60 85.5 µM | 786-0 > 100 µM | KM-20L2 > 100 µM | NCI-H460 > 100 µM | HOP-62 > 100 µM | SF-268 94.6 µM | K562 65 µM | Malme-3M > 100 µM | M14 > 100 µM

Nc1ccc(C(=O)O)c2[nH]c3ccccc3c(=O)c12
inactive: SF-539 > 100 µM | COLO 205 > 100 µM | HT-29 > 100 µM | SK-OV-3 > 100 µM | HCT-116 > 100 µM | RPMI-8226 > 100 µM | HL-60 > 100 µM | 786-0 > 100 µM | KM-20L2 > 100 µM | NCI-H460 > 100 µM | HOP-62 > 100 µM | SF-268 > 100 µM | K562 > 100 µM | Malme-3M > 100 µM | M14 > 100 µM

CC1=C(C(=O)Nc2c(C)cccc2C)C(c2ccc3c(c2)OCO3)C(C(=O)Nc2c(C)cccc2C)=C(C)N1
inactive: SF-539 19.2 µM | SK-MEL-28 22.2 µM | COLO 205 21.9 µM | HT-29 16.2 µM | SK-OV-3 77.3 µM | HCT-116 14.3 µM | HL-60 16.3 µM | 786-0 13.7 µM | KM-20L2 15.5 µM | NCI-H460 18.5 µM | HOP-62 23.1 µM | SF-268 19.4 µM | K562 13.4 µM | Malme-3M 20.2 µM | M14 18.1 µM

CCCCCC(CN1CCOCC1)C(=O)/C=C/c1ccccc1 (stereo not given)
inactive: SF-539 2.07 µM | SK-MEL-28 5.82 µM | COLO 205 3.77 µM | HT-29 2.67 µM | SK-OV-3 2.71 µM | HCT-116 1.75 µM | RPMI-8226 2.11 µM | HL-60 1.85 µM | 786-0 1.76 µM | KM-20L2 3.03 µM | NCI-H460 2.77 µM | HOP-62 5 µM | SF-268 1.94 µM | K562 2.16 µM | Malme-3M 2.1 µM | M14 2 µM

COCOCC[C@@H]1CC=CC(NC(=O)OCc2ccccc2)C1/C=C/C(=O)CCC1OCCO1 (stereo not given in full)
inactive: SF-539 25.6 µM | SK-MEL-28 42.1 µM | COLO 205 20.7 µM | HT-29 38.9 µM | SK-OV-3 54.5 µM | HCT-116 17.7 µM | RPMI-8226 26.1 µM | HL-60 18.5 µM | 786-0 48.4 µM | KM-20L2 34.9 µM | NCI-H460 38.6 µM | HOP-62 > 79.8 µM | SF-268 34 µM | K562 32.1 µM | Malme-3M 98.2 µM | M14 29.5 µM

[N-]=[N+]=NC1C(Cl)C(=O)NC(=O)N1[C@H]1C[C@H](O)[C@@H](CO)O1 (stereo not given in full)
inactive: SF-539 > 100 µM | SK-MEL-28 > 100 µM | COLO 205 > 100 µM | HT-29 > 100 µM | SK-OV-3 > 100 µM | HL-60 > 100 µM | 786-0 > 100 µM | KM-20L2 > 100 µM | NCI-H460 > 100 µM | HOP-62 > 100 µM | K562 > 100 µM | Malme-3M 13.3 µM | M14 > 100 µM
